Reference: paper PMC5218480 (PLoS ONE, 2017)

Test system: MV-4-11 cells
Test: Gene expression microarray analysis (Affymetrix PrimeView) and GSEA
Type: cell-based, human
Set-up: RFU PODN (11730768_x_at) / Fold change /veh PODN (11730768_x_at) / RFU LINC00158 (11744669_a_at) / Fold change /veh LINC00158 (11744669_a_at) / RFU DUSP10 (11751237_a_at) / Fold change /veh DUSP10 (11751237_a_at) / RFU ID3 (11757404_x_at) / Fold change /veh ID3 (11757404_x_at) / RFU PLEKHG5 (11737974_s_at) / Fold change /veh PLEKHG5 (11737974_s_at) / RFU LRRC4B (11730491_at) / Fold change /veh LRRC4B (11730491_at) / RFU GIMAP4 (11747438_a_at) / Fold change /veh GIMAP4 (11747438_a_at) / RFU KRT8 (11758183_x_at) / Fold change /veh KRT8 (11758183_x_at) / RFU CNN1 (11734310_a_at) / Fold change /veh CNN1 (11734310_a_at) / RFU VPS37D (11726825_at) / Fold change /veh VPS37D (11726825_at) / RFU C10orf10 (11716522_x_at) / Fold change /veh C10orf10 (11716522_x_at) / RFU KIR2DL2 /// KIR2DL4 /// KIR2DL5A /// KIR2DL5B /// KIR2DS1 /// KIR2DS2 /// KIR2DS3 /// KIR2DS4 /// KIR3DL3 /// KIR3DL3 /// KIR3DS1 (11738374_at) / Fold change /veh KIR2DL2 /// KIR2DL4 /// KIR2DL5A /// KIR2DL5B /// KIR2DS1 /// KIR2DS2 /// KIR2DS3 /// KIR2DS4 /// KIR3DL3 /// KIR3DL3 /// KIR3DS1 (11738374_at) / RFU C1QL1 (11718748_at) / Fold change /veh C1QL1 (11718748_at) / RFU TMPRSS4 (11747572_a_at) / Fold change /veh TMPRSS4 (11747572_a_at) / RFU HAMP (11756126_x_at) / Fold change /veh HAMP (11756126_x_at) / RFU RNFT2 (11725882_a_at) / Fold change /veh RNFT2 (11725882_a_at) / RFU NR4A2 (11747474_a_at) / Fold change /veh NR4A2 (11747474_a_at) / RFU ABCC12 (11746883_a_at) / Fold change /veh ABCC12 (11746883_a_at) / RFU TMEM136 (11760407_x_at) / Fold change /veh TMEM136 (11760407_x_at) / RFU CLDN22 /// WWC2 (11732394_at) / Fold change /veh CLDN22 /// WWC2 (11732394_at) / RFU HLA-DPB1 (11760878_x_at) / Fold change /veh HLA-DPB1 (11760878_x_at) / RFU SPINT1 (11716480_a_at) / Fold change /veh SPINT1 (11716480_a_at) / RFU GAP43 (11754022_s_at) / Fold change /veh GAP43 (11754022_s_at) / RFU A4GNT (11735810_at) / Fold change /veh A4GNT (11735810_at) / RFU PRB3 (11715151_x_at) / Fold change /veh PRB3 (11715151_x_at) / RFU TUBB4B (11761932_at) / Fold change /veh TUBB4B (11761932_at) / RFU CAPN14 (11732068_a_at) / Fold change /veh CAPN14 (11732068_a_at) / RFU TMCC2 (11721928_a_at) / Fold change /veh TMCC2 (11721928_a_at) / RFU IRGQ (11745062_a_at) / Fold change /veh IRGQ (11745062_a_at) / RFU FAM174B (11720279_a_at) / Fold change /veh FAM174B (11720279_a_at) / RFU TMPRSS4 (11748680_a_at) / Fold change /veh TMPRSS4 (11748680_a_at) / RFU FAM212B (11763350_a_at) / Fold change /veh FAM212B (11763350_a_at) / RFU PLEKHG5 (11743358_a_at) / Fold change /veh PLEKHG5 (11743358_a_at) / RFU ZSCAN30 (11745921_a_at) / Fold change /veh ZSCAN30 (11745921_a_at) / RFU CMKLR1 (11741424_a_at) / Fold change /veh CMKLR1 (11741424_a_at) / RFU LOC101060620 /// MAPK8IP1 (11723275_at) / Fold change /veh LOC101060620 /// MAPK8IP1 (11723275_at) / RFU SPTSSB (11747773_x_at) / Fold change /veh SPTSSB (11747773_x_at) / RFU PRSS12 (11739890_at) / Fold change /veh PRSS12 (11739890_at) / RFU BIN1 (11741810_x_at) / Fold change /veh BIN1 (11741810_x_at) / RFU WNT11 (11732464_a_at) / Fold change /veh WNT11 (11732464_a_at) / RFU C10orf10 (11716521_a_at) / Fold change /veh C10orf10 (11716521_a_at) / RFU C5orf56 (11738089_at) / Fold change /veh C5orf56 (11738089_at) / RFU CYB561 (11721691_x_at) / Fold change /veh CYB561 (11721691_x_at) / RFU ANKRD19P (11752326_a_at) / Fold change /veh ANKRD19P (11752326_a_at) / RFU OR2T12 /// OR2T33 /// OR2T8 (11738714_s_at) / Fold change /veh OR2T12 /// OR2T33 /// OR2T8 (11738714_s_at) / RFU VCAN (11748164_a_at) / Fold change /veh VCAN (11748164_a_at) / RFU JSRP1 (11732532_at) / Fold change /veh JSRP1 (11732532_at) / RFU KRTAP10-11 (11738290_x_at) / Fold change /veh KRTAP10-11 (11738290_x_at) / RFU MYO3A (11730013_a_at) / Fold change /veh MYO3A (11730013_a_at) / RFU EBF3 (11725865_a_at) / Fold change /veh EBF3 (11725865_a_at) / RFU CAMK2N1 (11719241_x_at) / Fold change /veh CAMK2N1 (11719241_x_at) / RFU C5orf56 (11738088_a_at) / Fold change /veh C5orf56 (11738088_a_at) / RFU OLFML3 (11715873_a_at) / Fold change /veh OLFML3 (11715873_a_at) / RFU LOC100653217 /// NTM (11731650_a_at) / Fold change /veh LOC100653217 /// NTM (11731650_a_at) / RFU MAPK11 (11762145_a_at) / Fold change /veh MAPK11 (11762145_a_at) / RFU FIZ1 (11724087_x_at) / Fold change /veh FIZ1 (11724087_x_at) / RFU OASL (11726364_x_at) / Fold change /veh OASL (11726364_x_at) / RFU SOX15 (11748057_x_at) / Fold change /veh SOX15 (11748057_x_at) / RFU CD79A (11719716_a_at) / Fold change /veh CD79A (11719716_a_at) / RFU HIST1H1D (11736915_at) / Fold change /veh HIST1H1D (11736915_at) / RFU CASKIN2 (11723855_a_at) / Fold change /veh CASKIN2 (11723855_a_at) / RFU LOC730098 (11760151_x_at) / Fold change /veh LOC730098 (11760151_x_at) / RFU OR4N2 (11742367_at) / Fold change /veh OR4N2 (11742367_at) / RFU PRRT2 (11749266_a_at) / Fold change /veh PRRT2 (11749266_a_at) / RFU SNX32 (11753110_a_at) / Fold change /veh SNX32 (11753110_a_at) / RFU CDHR5 (11726645_a_at) / Fold change /veh CDHR5 (11726645_a_at) / RFU RCAN1 (11760418_a_at) / Fold change /veh RCAN1 (11760418_a_at) / RFU FAM167A (11723789_a_at) / Fold change /veh FAM167A (11723789_a_at) / RFU FAM26E (11764081_at) / Fold change /veh FAM26E (11764081_at) / RFU ISYNA1 (11749810_s_at) / Fold change /veh ISYNA1 (11749810_s_at) / RFU ACY1 (11761880_at) / Fold change /veh ACY1 (11761880_at) / RFU 11764098_at / Fold change /veh 11764098_at / RFU SAMD14 (11745864_x_at) / Fold change /veh SAMD14 (11745864_x_at) / RFU NPB (11741838_a_at) / Fold change /veh NPB (11741838_a_at) / RFU TMPRSS6 (11731388_a_at) / Fold change /veh TMPRSS6 (11731388_a_at) / RFU KRTAP10-2 (11738614_at) / Fold change /veh KRTAP10-2 (11738614_at) / RFU ARHGAP8 /// PRR5-ARHGAP8 (11727945_x_at) / Fold change /veh ARHGAP8 /// PRR5-ARHGAP8 (11727945_x_at) / RFU KRTAP5-7 /// NADSYN1 (11734609_at) / Fold change /veh KRTAP5-7 /// NADSYN1 (11734609_at) / RFU RASL12 (11751679_a_at) / Fold change /veh RASL12 (11751679_a_at) / RFU CDKN2B (11736163_a_at) / Fold change /veh CDKN2B (11736163_a_at) / RFU PRF1 (11729649_at) / Fold change /veh PRF1 (11729649_at) / RFU, ZNF638 /// ZNF638-IT1 / Fold change vs veh, ZNF638 /// ZNF638-IT1 / RFU, PANK3 / Fold change vs veh, PANK3 / RFU, SH3YL1 / Fold change vs veh, SH3YL1 / RFU, ZEB2 / Fold change vs veh, ZEB2 / RFU, NRIP1 / Fold change vs veh, NRIP1 / RFU, PTTG1IP / Fold change vs veh, PTTG1IP / RFU, CAPN2 / Fold change vs veh, CAPN2 / RFU, MED14 / Fold change vs veh, MED14 / RFU, SNORA58 / Fold change vs veh, SNORA58 / RFU, C1orf63 / Fold change vs veh, C1orf63 / RFU, LRRFIP1 / Fold change vs veh, LRRFIP1 / RFU, NDUFAF7 / Fold change vs veh, NDUFAF7 / RFU, SLC12A2 / Fold change vs veh, SLC12A2 / RFU, IBTK / Fold change vs veh, IBTK / RFU, ESF1 / Fold change vs veh, ESF1 / Fold change vs veh, TMEM50B / RFU, TAOK1 / Fold change vs veh, TAOK1 / RFU, ACBD3 / Fold change vs veh, ACBD3 / RFU, TMA16 / Fold change vs veh, TMA16 / RFU, RWDD3 / Fold change vs veh, RWDD3 / RFU, BCAT1 / Fold change vs veh, BCAT1 / RFU, EDEM3 / Fold change vs veh, EDEM3 / RFU, TMEM33 / Fold change vs veh, TMEM33 / RFU, WDR75 / Fold change vs veh, WDR75 / RFU, AHCTF1 / Fold change vs veh, AHCTF1 / RFU, TFRC / Fold change vs veh, TFRC / RFU, ZDHHC17 / Fold change vs veh, ZDHHC17 / RFU, NOM1 / Fold change vs veh, NOM1 / RFU, ARL8B / Fold change vs veh, ARL8B / RFU, ZBTB11 / Fold change vs veh, ZBTB11 / RFU, TAMM41 / Fold change vs veh, TAMM41 / RFU, KIAA1704 /// LOC100996395 / Fold change vs veh, KIAA1704 /// LOC100996395 / RFU, ING1 / Fold change vs veh, ING1 / RFU, TRMT61B / Fold change vs veh, TRMT61B / RFU, FUBP3 / Fold change vs veh, FUBP3 / RFU, TP53 / Fold change vs veh, TP53 / RFU, TNKS2 / Fold change vs veh, TNKS2 / RFU, ZFP14 / Fold change vs veh, ZFP14 / RFU, ACTR2 / Fold change vs veh, ACTR2 / RFU, PPP3R1 / Fold change vs veh, PPP3R1 / RFU, PIK3R1 / Fold change vs veh, PIK3R1 / RFU, HNRNPA1 / Fold change vs veh, HNRNPA1 / RFU, RNF170 / Fold change vs veh, RNF170 / RFU, ZNF28 / Fold change vs veh, ZNF28 / RFU, RNGTT / Fold change vs veh, RNGTT / RFU, OGT / Fold change vs veh, OGT / RFU, BRD1 / Fold change vs veh, BRD1 / RFU, MARS / Fold change vs veh, MARS / RFU, ZNF655 / Fold change vs veh, ZNF655 / RFU, FAHD1 / Fold change vs veh, FAHD1 / RFU, BDP1 / Fold change vs veh, BDP1 / RFU, LRRCC1 / Fold change vs veh, LRRCC1 / RFU, ARID1A / Fold change vs veh, ARID1A / RFU, ZNF146 / Fold change vs veh, ZNF146 / RFU, ZNF330 / Fold change vs veh, ZNF330 / RFU, GPN3 / Fold change vs veh, GPN3 / RFU, C9orf123 / Fold change vs veh, C9orf123 / RFU, N4BP2L2 / Fold change vs veh, N4BP2L2 / RFU, ARFIP1 / Fold change vs veh, ARFIP1 / RFU, FAM179B / Fold change vs veh, FAM179B / RFU, BCL10 / Fold change vs veh, BCL10 / RFU, UHRF1BP1L / Fold change vs veh, UHRF1BP1L / RFU, BET1 / Fold change vs veh, BET1 / RFU, CNOT2 / Fold change vs veh, CNOT2 / RFU, ZNF268 / Fold change vs veh, ZNF268 / Fold change vs veh, ZNF507 / RFU, DGCR2 / Fold change vs veh, DGCR2 / RFU, WDSUB1 / Fold change vs veh, WDSUB1 / Fold change vs veh, HSP90B1 /// MIR3652 / RFU, ADSS / Fold change vs veh, ADSS / RFU, GK / Fold change vs veh, GK / RFU, ZNF148 / Fold change vs veh, ZNF148 / RFU, TAF9 / Fold change vs veh, TAF9 / RFU, SLC1A5 / Fold change vs veh, SLC1A5 / RFU, SLMO2 / Fold change vs veh, SLMO2 / RFU, ABCC4 / Fold change vs veh, ABCC4 / RFU, LOC101060439 /// RAP1B / Fold change vs veh, LOC101060439 /// RAP1B / RFU, RFX7 / Fold change vs veh, RFX7 / RFU, GTPBP10 / Fold change vs veh, GTPBP10 / RFU, CNEP1R1 / Fold change vs veh, CNEP1R1 / RFU, BIVM-ERCC5 /// ERCC5 / Fold change vs veh, BIVM-ERCC5 /// ERCC5 / RFU, ILF3 / Fold change vs veh, ILF3 / RFU 11762660_at / Fold change /veh 11762660_at / RFU VCAN (11757783_s_at) / Fold change /veh VCAN (11757783_s_at) / RFU DDX43 (11728927_at) / Fold change /veh DDX43 (11728927_at) / RFU KRT8 (11758188_x_at) / Fold change /veh KRT8 (11758188_x_at) / RFU NKD1 (11759106_at) / Fold change /veh NKD1 (11759106_at) / RFU SRD5A1 (11742802_a_at) / Fold change /veh SRD5A1 (11742802_a_at) / RFU TPSAB1 /// TPSB2 (11721975_s_at) / Fold change /veh TPSAB1 /// TPSB2 (11721975_s_at) / RFU GSTM3 (11746129_a_at) / Fold change /veh GSTM3 (11746129_a_at) / RFU IL23R (11737362_x_at) / Fold change /veh IL23R (11737362_x_at) / RFU TMEM51 (11727254_a_at) / Fold change /veh TMEM51 (11727254_a_at) / RFU PIWIL2 (11732686_x_at) / Fold change /veh PIWIL2 (11732686_x_at) / RFU ORM1 (11744905_x_at) / Fold change /veh ORM1 (11744905_x_at) / RFU CCDC152 (11743942_at) / Fold change /veh CCDC152 (11743942_at) / RFU ECM1 (11717891_a_at) / Fold change /veh ECM1 (11717891_a_at) / RFU IL23R (11748794_a_at) / Fold change /veh IL23R (11748794_a_at) / RFU TNFAIP8L3 (11732012_x_at) / Fold change /veh TNFAIP8L3 (11732012_x_at) / RFU MBOAT4 (11741988_at) / Fold change /veh MBOAT4 (11741988_at) / RFU 11764193_at / Fold change /veh 11764193_at / RFU TMEM53 (11763286_at) / Fold change /veh TMEM53 (11763286_at) / RFU MAGEB2 (11727129_at) / Fold change /veh MAGEB2 (11727129_at) / RFU TMEM200A (11744735_a_at) / Fold change /veh TMEM200A (11744735_a_at) / RFU CCDC152 (11751479_a_at) / Fold change /veh CCDC152 (11751479_a_at) / RFU FAM211A (11726209_a_at) / Fold change /veh FAM211A (11726209_a_at) / RFU RGS16 (11746705_a_at) / Fold change /veh RGS16 (11746705_a_at) / RFU VCAN (11755009_s_at) / Fold change /veh VCAN (11755009_s_at) / RFU RHOB (11743442_s_at) / Fold change /veh RHOB (11743442_s_at) / RFU RGS16 (11720943_a_at) / Fold change /veh RGS16 (11720943_a_at) / RFU RGS16 (11720944_at) / Fold change /veh RGS16 (11720944_at) / RFU, VPS4B / Fold change vs veh, VPS4B / RFU, CREB1 / Fold change vs veh, CREB1 / RFU, DNAJC13 / Fold change vs veh, DNAJC13 / RFU, GNAQ / Fold change vs veh, GNAQ / RFU, CDK5R1 / Fold change vs veh, CDK5R1 / RFU, ZRANB3 / Fold change vs veh, ZRANB3 / RFU, CUL4A / Fold change vs veh, CUL4A / RFU, CCNY / Fold change vs veh, CCNY / RFU, UFL1 / Fold change vs veh, UFL1 / RFU, COG3 / Fold change vs veh, COG3 / RFU, DIAPH2 / Fold change vs veh, DIAPH2 / RFU, SKA2 / Fold change vs veh, SKA2 / RFU, AFF3 / Fold change vs veh, AFF3 / RFU, LMF1 / Fold change vs veh, LMF1 / RFU, IPO11 / Fold change vs veh, IPO11 / RFU, DFFB / Fold change vs veh, DFFB / RFU, FOXP1 / Fold change vs veh, FOXP1 / RFU, CARD8 / Fold change vs veh, CARD8 / RFU, STRN3 / Fold change vs veh, STRN3 / RFU, ADK / Fold change vs veh, ADK / RFU, RASSF2 / Fold change vs veh, RASSF2 / RFU, WIPF1 / Fold change vs veh, WIPF1 / RFU, LARP1B / Fold change vs veh, LARP1B / RFU, RASA1 / Fold change vs veh, RASA1 / RFU, RB1 / Fold change vs veh, RB1 / RFU, PPFIA1 / Fold change vs veh, PPFIA1 / RFU, MAT2A / Fold change vs veh, MAT2A / RFU, CCT5 / Fold change vs veh, CCT5 / RFU, WDR92 / Fold change vs veh, WDR92 / RFU, CUX1 / Fold change vs veh, CUX1 / RFU, TTC7A / Fold change vs veh, TTC7A / RFU, TMEM135 / Fold change vs veh, TMEM135 / RFU, DEPTOR / Fold change vs veh, DEPTOR / RFU, CPM / Fold change vs veh, CPM / RFU, DNAJB6 / Fold change vs veh, DNAJB6 / RFU, CACNA2D3 / Fold change vs veh, CACNA2D3 / RFU, DTX4 / Fold change vs veh, DTX4 / RFU, TFCP2 / Fold change vs veh, TFCP2 / RFU, GMCL1 /// GMCL1P1 / Fold change vs veh, GMCL1 /// GMCL1P1 / RFU, AEBP2 / Fold change vs veh, AEBP2 / RFU, SNHG1 /// SNORD22 /// SNORD25 /// SNORD26 /// SNORD27 /// SNORD28 /// SNORD29 /// SNORD31 / Fold change vs veh, SNHG1 /// SNORD22 /// SNORD25 /// SNORD26 /// SNORD27 /// SNORD28 /// SNORD29 /// SNORD31 / Fold change (Aza/veh), C12orf56 (ProbeSet 11735607_a_at) / Fold change (ACY-1035/veh), C12orf56 (ProbeSet 11735607_a_at) / Fold change (Aza/veh), FGFR1OP (ProbeSet 11751329_s_at) / Fold change (ACY-1035/veh), FGFR1OP (ProbeSet 11751329_s_at) / Fold change (Aza/veh), VPS36 (ProbeSet 11739960_a_at) / Fold change (ACY-1035/veh), VPS36 (ProbeSet 11739960_a_at) / RFU SYPL1 (11715823_x_at) / Fold change /veh SYPL1 (11715823_x_at) / RFU IGFBP7 (11715501_s_at) / Fold change /veh IGFBP7 (11715501_s_at) / RFU REEP3 (11722064_at) / Fold change /veh REEP3 (11722064_at) / RFU IGLL1 (11728026_x_at) / Fold change /veh IGLL1 (11728026_x_at): dose or concentration left out as unconfirmed
Conditions: MV-4-11 cells, 48 hours

With `Nc1ccc(-c2cccs2)cc1NC(=O)c1ccc2c(c1)cc(C1CC1)n2CCN1CCOCC1` [ACY-1035] the “Fold change /veh IGFBP7 (11715501_s_at)” value was 0.33.
